Data as given in patent US10787432B2, “N-[(pyridyloxy)propanyl]benzamides” (Boehringer Ingelheim International GmbH, priority 2016, dated 2020).
Where two headings read alike, the source gives them in different places.

Columns and labels:
[1] = target: T1, human orexin 2 receptor (Homo sapiens, UniProt O43614); assay: Assay B: In vitro testing of OX2R potency: OX2R IP1 (HTRF, CHO-K1/hOX2 cells, Orexin A as agonist); type: cell-based
T1 construct: stably expressing the full-length human orexin 2 receptor; expressed in transfected cells; host or cells: CHO-K1 (CHO-K1/hOX2), co-expressing aequorin
T1 sequence (O43614 1-444): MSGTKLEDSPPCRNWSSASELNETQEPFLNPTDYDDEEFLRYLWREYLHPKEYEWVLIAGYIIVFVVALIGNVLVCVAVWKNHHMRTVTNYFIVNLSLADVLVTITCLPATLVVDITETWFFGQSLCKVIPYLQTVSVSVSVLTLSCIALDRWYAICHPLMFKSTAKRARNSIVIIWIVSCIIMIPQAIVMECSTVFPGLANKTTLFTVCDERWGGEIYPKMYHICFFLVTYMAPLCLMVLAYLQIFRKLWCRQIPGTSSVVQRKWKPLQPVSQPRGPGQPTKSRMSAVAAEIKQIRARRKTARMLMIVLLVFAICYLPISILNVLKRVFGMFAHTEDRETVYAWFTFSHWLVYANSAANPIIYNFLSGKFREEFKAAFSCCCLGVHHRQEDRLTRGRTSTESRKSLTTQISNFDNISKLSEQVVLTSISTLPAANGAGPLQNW
How it was run: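 CHO-K1 cells stably expressing full-length human OX2R, pretreated 15 min at room temperature with compound (8-point, 1% DMSO) in HBSS/HEPES/BSA with 50 mM LiCl, pH 7.4, then stimulated 60 min at 37 °C with 0.5 nM Orexin A. IP1 by HTRF (665/615 ratio); IC50 from 4-parameter fit converted to agonist-independent Kb.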

[2] = target: T2, human Orexin 1 receptor (Homo sapiens, UniProt O43613); assay: Assay A: In vitro testing of OX1R potency: OX1R IP1 (HTRF, CHO-K1/hOX1 cells, Orexin A as agonist); type: cell-based
T2 construct: stably expressing the full-length human Orexin 1 receptor; expressed in transfected cells; host or cells: CHO-K1 (CHO-K1/hOX1), co-expressing aequorin
T2 sequence (O43613 1-425): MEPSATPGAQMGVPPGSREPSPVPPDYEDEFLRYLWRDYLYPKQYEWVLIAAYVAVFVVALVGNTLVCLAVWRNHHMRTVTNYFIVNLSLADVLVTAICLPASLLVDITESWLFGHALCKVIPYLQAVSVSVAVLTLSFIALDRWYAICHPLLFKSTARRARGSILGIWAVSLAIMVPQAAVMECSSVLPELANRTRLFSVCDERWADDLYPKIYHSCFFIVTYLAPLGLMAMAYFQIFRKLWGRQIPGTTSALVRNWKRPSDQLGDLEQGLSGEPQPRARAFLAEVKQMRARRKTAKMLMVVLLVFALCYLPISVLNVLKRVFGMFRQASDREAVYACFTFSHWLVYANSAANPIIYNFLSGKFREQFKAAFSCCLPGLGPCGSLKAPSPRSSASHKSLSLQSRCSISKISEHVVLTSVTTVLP

[3] = Assay C: Metabolic stability in human liver microsomes (Human MST); type: in vitro ADME; conditions: pooled human liver microsomes, pH 7.6; human liver microsomes 1 mg/mL, compound 1 μM, 37° C., NADPH; read-out: Human MST t1/2
How it was run: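 Test compound (1 μM) was incubated at 37 °C with pooled human liver microsomes (1 mg/mL protein) in 0.1 M TRIS pH 7.6 with 5 mM MgCl2, and reactions were started with 1 mM NADPH. Aliquots were quenched at several time points and parent compound was quantified by LC-MS/MS. t1/2 came from the slope of the semi-log concentration–time plot.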

[4] = Orexin A 0.5 nM, read-out: OX1R Kb (Orexin A concentration used)
[5] = Orexin A 50 nM, read-out: OX1R Kb (Orexin A concentration used)

| SMILES | Kb ([1]; Orexin A 0.5 nM) [nM] | OX2R Kb/OX1R Kb ([2]; OX1R Kb at 0.5 nM Orexin A) | Kb [2, 4] [nM] | half-life at 1 μM [3] [min] | OX2R Kb/OX1R Kb ([2]; OX1R Kb at 50 nM Orexin A) | Kb [2, 5] [nM] | Kb [1] [nM] | Kb [2] [nM] |
| --- | --- | --- | --- | --- | --- | --- | --- | --- |
| CCN(C(=O)c1cc(F)ccc1-n1cccn1)[C@@H](C)COc1ncc(C(F)(F)F)cc1F [Example 124] | 1060 | 278 | 3.8 | 10 | – | – | – | – |
| CCN(C(=O)c1cccc(F)c1-c1ncccn1)[C@@H](C)COc1ccc(Br)cn1 [Example 125] | 27 | – | – | > 130 | 355 | 0.076 | – | – |
| CCN(C(=O)c1cc(F)cc(F)c1-n1nccn1)[C@@H](C)COc1ccc(OC(F)(F)F)cn1 [Example 126] | 41 | 71 | 0.58 | 62 | 66 | 0.62 | – | – |
| CCN(C(=O)c1c(-n2nccn2)ccc(C)c1F)[C@@H](C)COc1ncc(C(F)(F)F)cc1F [Example 127] | 49 | – | – | 15 | 377 | 0.13 | – | – |
| CCN(C(=O)c1ccc(F)cc1-c1ncccn1)[C@@H](C)COc1ccc(Br)cn1 [Example 129] | 42 | – | – | 30 | 247 | 0.17 | – | – |
| CCN(C(=O)c1cccc(F)c1-c1ncccn1)[C@@H](C)COc1ccc(OC(F)(F)F)cn1 [Example 130] | 20 | – | – | > 130 | 133 | 0.15 | – | – |
| CCN(C(=O)c1ccc(OC)cc1-n1nccn1)[C@@H](C)COc1ncc(C(F)(F)F)cc1F [Example 131] | 450 | 506 | 0.89 | 11 | 900 | 0.5 | – | – |
| CCN(C(=O)c1ccccc1-c1cnn(C)c1)[C@@H](C)COc1ncc(C(F)(F)F)cc1F [Example 132] | 152 | 89 | 1.7 | 11 | – | – | – | – |
| CCN(C(=O)c1cccc(F)c1-n1nccn1)[C@@H](C)COc1ccc(F)c(C(F)(F)F)n1 [Example 133] | – | 63 | – | 21 | – | – | 101 | 1.6 |
| CCN(C(=O)c1cccc(Cl)c1-n1nccn1)[C@@H](C)COc1ccc(OC(F)(F)F)cn1 [Example 134] | 12 | – | – | 64 | 86 | 0.14 | – | – |
